Data on 2 molecules can be found in ChEMBL document CHEMBL1671659, “In vitro and in vivo properties of dihydrophthalazine antifolates, a novel family of antibacterial drugs” (Antimicrob Agents Chemother, 2009).

The nature of assay [1]: Inhibition of trimethoprim-resistant Staphylococcus aureus Type S1 dihydrofolate reductase.
In assay [2] the test system is Staphylococcus aureus. Briefly: Antibacterial activity against vancomycin, trimethoprim, methicillin-resistant Staphylococcus aureus VRS1 harboring dfrA and dfrB genes. It counts as functional.
Assay [3] can be described thus: Inhibition of trimethoprim-sensitive Staphylococcus aureus DfrB type dihydrofolate reductase.
Assay [4] has as its system Staphylococcus epidermidis. Briefly: Antibacterial activity against methicillin, vancomycin, trimethoprim-sensitive Staphylococcus epidermidis ATCC 14990 harboring dfrC gene. It counts as functional.
The test system of assay [5] is Staphylococcus aureus. Briefly: Antibacterial activity against methicillin, vancomycin, trimethoprim-sensitive Staphylococcus aureus ATCC 29213 harboring dfrB gene. It counts as functional.
In the next assay the target is Dihydrofolate reductase (Staphylococcus aureus, UniProt P0A017, F99Y). Briefly: Inhibition of trimethoprim-resistant Staphylococcus aureus DfrB type dihydrofolate reductase F98Y mutant.
The test system of assay [6] is Staphylococcus aureus. Briefly: Antibacterial activity against vancomycin, trimethoprim-sensitive and methicillin-resistant Staphylococcus aureus ATCC 43300 harboring dfrB gene. It counts as functional.
Assay [7] deals with Staphylococcus epidermidis. Briefly: Antibacterial activity against methicillin, vancomycin-sensitive and trimethoprim-resistant Staphylococcus epidermidis BAS000635 harboring dfrC and dfrA genes. It counts as functional.

Usually IC50 stands for the concentration that gives 50% inhibition. The MIC is the smallest concentration in the dilution series that meets the test's criterion for growth inhibition. Higher therefore signals a less susceptible organism.

Converted amounts (≈) assume the structure as drawn.

For `COc1cc(Cc2cnc(N)nc2N)cc(/C=C/C(=O)N2N=Cc3ccccc3[C@H]2c2cnc(N(C)C)nc2)c1OC`, the IC50 was 1010 nM in assay [1], 37.6 nM in assay [3] and 2920 nM at Dihydrofolate reductase. Further, the minimum inhibitory concentration (MIC) in the assay with Staphylococcus aureus [2] is > 8 µg/mL; in assay [4] it was 0.5 µg/mL (≈ 0.884 µM); against Staphylococcus aureus [5], 2 µg/mL (≈ 3.54 µM); against Staphylococcus aureus [6] it was 2 µg/mL (≈ 3.54 µM); in assay [7] it was > 8 µg/mL.
As to `COc1ncc([C@H]2c3ccccc3C=NN2C(=O)/C=C/c2cc(Cc3cnc(N)nc3N)cc(OC)c2OC)cn1`, the results for the IC50 (in assay [1]; in assay [3]; on Dihydrofolate reductase) were 98.3 nM, 3.9 nM and 13.5 nM, respectively. In addition, the minimal inhibitory concentration (MIC) turned out to be 2 µg/mL (≈ 3.62 µM) against Staphylococcus aureus [2]; 0.06 µg/mL (≈ 0.109 µM) in assay [4]; 0.25 µg/mL (≈ 0.452 µM) in the assay with Staphylococcus aureus [5]; 0.125 µg/mL (≈ 0.226 µM) against Staphylococcus aureus [6]; 1 µg/mL (≈ 1.81 µM) in assay [7].
